Patent US7829560B2, “1,4-disubstituted naphthalenes as inhibitors of P38 MAP kinase” (Arqule, Inc., priority 2004, dated 2010)
Where two headings read alike, the source gives them in different places.

Key:
[1] = target: T1, p38α (Homo sapiens, UniProt Q16539); test: p38 MAP Kinase assay: inhibition of ATF2 phosphorylation, ELISA; format: biochemical; conditions: for IC50: ATF2 phosphorylation, read-out: [ENZ] P38 ALPHA, IC50, ELISA; for inhibition at 10 µM: substrate ATF2, read-out: [ENZ] P38 ALPHA, PCT INH, ELISA (10 uM;ATF2) (Percent)
T1 construct: p38 MAP Kinases are recombinant human full-length proteins with an amino-terminal GST fusion; GST (N); purchased Upstate Biotechnology Inc; host or cells: E. coli
Outline: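 In vitro phosphorylation of ATF2 at Thr69 by recombinant human GST-p38 MAP kinase, read by anti-phospho-ATF2 ELISA at 450 nm. Enzyme and compound pre-incubated 15 min at RT, then 30 min reaction at 37 °C with 40 μM ATP and 1.25 μM ATF2; buffer with or without 1% HSA (Method II or I).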

[2] = test system: TNFα release from THP-1 cells; test: Inhibition of TNFα release from LPS-stimulated THP-1 cells, ELISA; format: cell-based; conditions: Homo sapiens, read-out: [CELL] THP-1, IC50, TNF ALPHA, ELISA
Excerpt: Compounds of the invention are screened for the ability to inhibit TNFα and IL-1β release from THP-1 cells stimulated with lipopolysaccharide (LPS) in vitro. The ability of compounds to inhibit TNFα and IL-1β release in this in vitro assay is correlated with the inhibition of p38 activity and TNFα and IL-1β expression in vivo, and is therefore an indicator of potential in vivo therapeutic activity (Lee J. C. et al, Ann. N.Y. Acad. Sci. 696: 149-170, 1993 and Nature, 372: 739-746, 1994).
Materials: THP-1 cells from ATCC (TIB202) are maintained at 37° C., 5% CO2 in RPMI 1640 media (available from MediaTech, Herndon, Va.) containing 4.5 g/L glucose, supplemented with 10% fetal bovine serum, 1% penicillin/streptomycin and 50 μM β-mercaptoethanol.
Methods: Test compounds are initially dissolved in RPMI media with 1% DMSO (v/v). Compounds are then serially diluted in RPMI media for all subsequent dilutions. The assay is performed under sterile conditions. THP-1 cells at a culture density of 6-8×10^5 cells/ml are collected and resuspended in the RPMI media at 10^6 cells/ml containing 10% fetal bovine serum, no serum or 1% human serum albumin (HSA). 100 μl of resuspended cells are added to each well, which contain 100 μl of a test compound. Test compounds are prepared at twice the final concentration. Final DMSO concentration is no more than 0.5% (v/v). Cells are preincubated with compound for 30 minutes at 37° C., 5% CO2 prior to stimulation with lipopolysaccharide (LPS) (Sigma L-2880, 4 mg/ml stock in PBS). The final LPS concentration in each well is 10 or 30 μg/ml for TNFα and IL-1β release, respectively. Unstimulated control cell suspensions receive PBS vehicle only. Cell mixtures are incubated for 18 or 48 hours for TNFα and IL-1β prelease, respectively. 150 μl of supernatants are taken and transferred to a fresh plate and stored at −20° C. until further analysis. TNFα and IL-1β levels are measured using ELISA kits from Biosource (Catalog no. KHC3012 for TNFα; KAC1192 for IL-1β). A SpectraMAX 250 is used as the plate reader. Analysis is performed by non-linear regression to generate a dose response curve. The calculated IC50 value is the concentration of the test compound that causes a 50% decrease in TNFα or IL-1β levels.

T1 sequence (Q16539 whole entry, the tested form may be a part): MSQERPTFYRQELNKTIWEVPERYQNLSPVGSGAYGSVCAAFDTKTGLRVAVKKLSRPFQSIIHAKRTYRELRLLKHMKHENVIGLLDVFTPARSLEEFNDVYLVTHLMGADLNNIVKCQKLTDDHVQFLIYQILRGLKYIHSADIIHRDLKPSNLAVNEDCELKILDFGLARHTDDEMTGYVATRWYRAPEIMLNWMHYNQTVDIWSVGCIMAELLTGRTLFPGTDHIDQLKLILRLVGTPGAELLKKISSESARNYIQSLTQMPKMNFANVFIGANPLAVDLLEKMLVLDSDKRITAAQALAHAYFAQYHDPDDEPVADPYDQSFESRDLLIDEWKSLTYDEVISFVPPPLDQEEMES

SMILES | IC50 [1] | IC50 ([2]; THP-1, THP-1 cells) | inhibition at 10 µM [1] | IC50 ([2]; THP-1 cells)
O=C(Nc1ccc(Oc2ccnc(N3CCC(CO)CC3)n2)c2ccccc12)c1cc(F)cc(N2CCCCC2)c1 [Compound B415, 3-Fluoro-N-[4-({2-[4-(hydroxymethyl)piperidin-1-yl]pyrimidin-4-yl}oxy)-1-naphthyl]-5-piperidin-1-ylbenzamide] | 6.1 nM | 162 nM | – | –
CC1=NCCN1c1nccc(Oc2ccc(NC(=O)c3cc(F)cc(N4CCCCC4)c3)c3ccccc23)n1 [Compound B417, 3-Fluoro-N-(4-{[2-(2-methyl-4,5-dihydro-1 H-imidazol-1-yl)pyrimidin-4-yl]oxy}-1-naphthyl)-5-piperidin-1-ylbenzamide] | 12.7 nM | 336 nM | – | –
O=C(Nc1ccc(NCCN2CCOCC2)c2ccccc12)c1cc(F)cc(N2CCOCC2)c1 [Compound B241] | 8250 nM | 9420 nM | – | –
Cc1nc(C(=O)Nc2ccc(OCCN3CCOCC3)c3ccccc23)cc(N2CCOCC2)n1 [Compound B46] | > 10000 nM | 685 nM | – | –
CN(C)CC(C)(C)CNc1nccc(Oc2ccc(NC(=O)c3cc(F)cc(N4CCOCC4)c3)c3ccccc23)n1 [Compound B317, N-{4-[2-(3-Dimethylamino-2,2-dimethyl-propylamino)-pyrimidin-4-yloxy]-naphthalen-1-yl}-3-fluoro-5-morpholin-4-yl-benzamide] | 9.9 nM | 23.8 nM | – | –
O=C(Nc1ccc(OCCN2CCOCC2)c2ccccc12)c1cccc(N2CCC3CCCCC3C2)n1 (stereo not drawn) [Compound B71] | > 10000 nM | > 10000 nM | – | –
CCOC(=O)N1CCC(Nc2nccc(Oc3ccc(NC(=O)c4cc(F)cc(N5CCCCC5)c4)c4ccccc34)n2)CC1 [Compound B401, Ethyl-4-{[4-({4-[(3-fluoro-5-piperidin-1-ylbenzoyl)amino]-1-naphthyl}oxy)pyrimidin-2-yl]amino}piperidine-1-carboxylate] | 25.6 nM | 1100 nM | – | –
CN(C(=N)N)c1nccc(Oc2ccc(NC(=O)c3cc(F)cc(N4CCCCC4)c3)c3ccccc23)n1 [Compound B413] | 36.3 nM | > 1000 nM | – | –
CC1CC(C)CN(c2nccc(Oc3ccc(NC(=O)c4cc(F)cc(N5CCCCC5)c4)c4ccccc34)n2)C1 (stereo not drawn) [Compound B391] | 207 nM | > 1000 nM | – | –
O=C(Nc1ccc(OCCN2CCOCC2)c2ccccc12)c1cn(Cc2ccccc2)c2ccccc12 [Compound B49] | > 10000 nM | – | – | > 10000 nM
CC1CCN(c2cc(F)cc(C(=O)Nc3ccc(N4CCN(C(=O)OC(C)(C)C)CC4)c4ccccc34)c2)CC1 [Compound B192] | > 10000 nM | 4720 nM | – | –
O=C(Nc1ccc(OCCN2CCOCC2)c2ccccc12)c1cc(F)cc(N2CCC3CCCCC3C2)c1 (stereo not drawn) [Compound B213] | > 10000 nM | > 10000 nM | – | –
CC(=O)N1CCN(CCOc2ccc(NC(=O)c3cc(F)cc(N4CCCCC4)c3)c3ccccc23)CC1 [Compound B167, N-{4-[2-(4-Acetyl-piperazin-1-yl)-ethoxy]-naphthalen-1-yl}-3-fluoro-5-piperidin-1-yl-benzamide] | 851 nM | > 10000 nM | – | –
O=C(Nc1ccc(Oc2ccnc(N3CCC(CO)CC3)n2)c2ccccc12)c1cc(F)cc(N2CCOCC2)c1 [Compound B359] | 4.2 nM | 104 nM | – | –
CC1CCN(c2cc(C(=O)Nc3ccc(OCCN4CCOCC4)c4ccccc34)cc(Cl)n2)CC1 [Compound B218] | 876 nM | 3580 nM | – | –
CC(=O)N1CCN(c2nccc(Oc3ccc(NC(=O)c4cc(F)cc(N5CCOCC5)c4)c4ccccc34)n2)CC1 [Compound B354] | 9.4 nM | 217 nM | – | –
CC1CCN(c2cc(F)cc(C(=O)Nc3ccc(Oc4ccnc(N5CCOCC5)n4)c4ccccc34)c2)CC1 [Compound B265, 3-Fluoro-5-(4-methylpiperidin-1-yl)-N-{4-[(2-morpholin-4-ylpyrimidin-4-yl)oxy]-1-naphthyl}benzamide] | 5060 nM | 765 nM | – | –

More lines, main results first:

IC50 [1] | IC50 ([2]; THP-1, THP-1 cells) | inhibition at 10 µM [1] | SMILES | IC50 ([2]; THP-1 cells)
> 10000 nM | > 10000 nM | – | CCOC(=O)N1CCN(CCOc2ccc(NC(=O)c3ccc(CN4CCOCC4)cc3)c3ccccc23)CC1 [Compound B3] | –
513 nM | > 10000 nM | – | CC(C)(C)CNc1cc(F)cc(C(=O)Nc2ccc(OCCN3CCOCC3)c3ccccc23)c1 [Compound B209, 3-[(2,2-Dimethylpropyl)amino]-5-fluoro-N-[4-(2-morpholin-4-ylethoxy)-1-naphthyl]benzamide] | –
– | 10700 nM | 41.3% | Cc1cccc(C(=O)Nc2ccc(OCCN3CCOCC3)c3ccccc23)c1Cl [Compound B82] | –
5550 nM | > 10000 nM | 73.5% | O=C(Nc1ccc(OCCN2CCSCC2)c2ccccc12)c1cccc(N2CCOCC2)c1 [Compound B20] | –
1880 nM | 8710 nM | – | Cc1cccc(-c2cccc(C(=O)Nc3ccc(OCCN4CCOCC4)c4ccccc34)c2)c1C [Compound B296] | –
> 10000 nM | > 10000 nM | – | C=Cc1ccc(-c2cccc(C(=O)Nc3ccc(OCCN4CCOCC4)c4ccccc34)c2)cc1 [Compound B281] | –
622 nM | 1030 nM | 88% | Cc1cc(C(=O)Nc2ccc(OCCN3CCOCC3)c3ccccc23)cc(N2CCCC(C)C2)n1 (stereo not drawn) [Compound B153, 3,6′-Dimethyl-3,4,5,6-tetrahydro-2H-[1,2′]bipyridinyl-4′-carboxylic acid [4-(2-morpholin-4-yl-ethoxy)-naphthalen-1-yl]-amide] | –
1680 nM | > 10000 nM | – | CC1CCCC(C)N1c1cc(F)cc(C(=O)Nc2ccc(OCCN3CCOCC3)c3ccccc23)c1 (stereo not drawn) [Compound B205, 3-(2,6-Dimethylpiperidin-1-yl)-5-fluoro-N-[4-(2-morpholin-4-ylethoxy)-1-naphthyl]benzamide] | –
> 1000 nM | 6430 nM | 61% | N#Cc1cccc(-c2cccc(C(=O)Nc3ccc(OCCN4CCOCC4)c4ccccc34)c2)c1 [Compound B110] | –
> 10000 nM | > 10000 nM | – | COc1ccc(C(C)C)cc1-c1cccc(C(=O)Nc2ccc(OCCN3CCOCC3)c3ccccc23)c1 [Compound B294] | –
10000 nM | > 10000 nM | – | C[C@@H]1CN(c2cccc(C(=O)Nc3ccc(OCCN4CCOCC4)c4ccccc34)c2)C[C@H](C)O1 [Compound B31] | –
2120 nM | 1190 nM | – | O=C(Nc1ccc(OCCN2CCOCC2)c2ccccc12)c1ccnc(N2CCCC2)c1 [Compound B45, N-[4-(2-Morpholin-4-yl-ethoxy)-naphthalen-1-yl]-2-pyrrolidin-1-yl-isonicotinamide] | –
> 10000 nM | > 10000 nM | – | CC(=O)c1ccc(-c2cccc(C(=O)Nc3ccc(OCCN4CCOCC4)c4ccccc34)c2)cc1 [Compound B274] | –
2460 nM | 2760 nM | – | Cc1ccc(N2CCOCC2)cc1C(=O)Nc1ccc(OCCN2CCOCC2)c2ccccc12 [Compound B39, 2-Methyl-5-morpholin-4-yl-N-[4-(2-morpholin-4-yl-ethoxy)-naphthalen-1-yl]-benzamide] | –
1880 nM | 782 nM | 68.5% | O=C(Nc1ccc(OCCN2CCOCC2)c2ccccc12)c1ccnc(N2CCCCC2)c1 [Compound B127, 3,4,5,6-Tetrahydro-2 H-[1,2′]bipyridinyl-4′-carboxylic acid [4-(2-morpholin-4-yl-ethoxy)-naphthalen-1-yl]-amide] | –
4160 nM | 2710 nM | 67% | O=C(Nc1ccc(OCCN2CCOCC2)c2ccccc12)c1cccc(-c2ccncc2)c1 [Compound B86, N-[4-(2-Morpholin-4-yl-ethoxy)-naphthalen-1-yl]-3-pyridin-4-yl-benzamide] | –
9080 nM | 9060 nM | – | Cc1cc(-c2cccc(C(=O)Nc3ccc(OCCN4CCOCC4)c4ccccc34)c2)ccc1Cl [Compound B300] | –
5030 nM | 2830 nM | – | O=C(Nc1ccc(OCCN2CCOCC2)c2ccccc12)c1cccc(-c2cc(Cl)ccc2Cl)c1 [Compound B295] | –
